According to patent publication US9187435B2, “Bridged Spiro[2.4]heptane ester derivatives” (Actelion Pharmaceuticals Ltd., priority 2010, dated 2015):
Structures can show the parent of a compound that is named as a salt.

Molecular target: T1, human ALX receptor (Homo sapiens, UniProt P25090)
T1 construct: expressed in transfected cells; host or cells: HEK293 (HEK293-hALXR-Gα16)
T1 sequence (P25090 1-351): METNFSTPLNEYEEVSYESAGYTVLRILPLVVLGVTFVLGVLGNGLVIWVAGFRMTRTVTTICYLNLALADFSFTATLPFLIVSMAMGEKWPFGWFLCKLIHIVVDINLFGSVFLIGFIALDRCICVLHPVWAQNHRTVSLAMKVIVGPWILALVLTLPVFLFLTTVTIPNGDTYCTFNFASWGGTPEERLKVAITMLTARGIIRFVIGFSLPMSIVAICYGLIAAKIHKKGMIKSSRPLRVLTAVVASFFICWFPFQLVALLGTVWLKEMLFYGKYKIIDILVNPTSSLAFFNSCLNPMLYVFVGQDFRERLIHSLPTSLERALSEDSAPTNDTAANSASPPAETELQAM
Test: Intracellular calcium measurements (FLIPR) in HEK293-hALXR-Gα16 cells, agonistic activity
Assay type: cell-based
Settings: values normalized to WKYMVm 10 nM
Summary of the method: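 HEK293 cells co-expressing human ALX receptor and Gα16, loaded with 1 μM Fluo-4 AM (60 min, 37 °C), then exposed to serially diluted compound. Peak fluorescence above baseline (ex 488/em 540 nm) was recorded after compound addition. Values were normalized to 10 nM WKYMVm as the high control, after subtracting the buffer-addition baseline.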

SMILES | EC50 [nM]
O=C(OCC(O)CO)[C@H]1[C@H](C(=O)Nc2ccc(Br)nc2)[C@@H]2CC[C@H]1C21CC1 (relative stereo) [Example 5, (1S,2R,3R,4R)-[(S*)-2,3-Dihydroxypropyl 2-((6-bromopyridin-3-yl)carbamoyl)spiro[bicyclo[2.2.1]heptane-7,1′-cyclopropane]-3-carboxylate]] | 242
O=C(OCCCC(=O)N1CCCC1)[C@H]1[C@H](C(=O)Nc2ccc(Br)nc2)[C@@H]2CC[C@H]1C21CC1 [Example 67, (1S,2R,3R,4R)-[(4-Pyrrolidino-4-oxobutyl) 2-((6-bromopyridin-3-yl)carbamoyl)spiro[bicyclo[2.2.1]heptane-7,1′-cyclopropane]-3-carboxylate]] | 125
Cc1cc(CNC(=O)[C@H]2[C@H](C(=O)OCCN3CCNCC3)[C@H]3CC[C@@H]2C32CC2)no1 [Example 63, (1S,2R,3R,4R)-[2-(piperazin-1-yl)ethyl 2-(((5-methylisoxazol-3-yl)methyl)carbamoyl)spiro[bicyclo[2.2.1]heptane-7,1′-cyclopropane]-3-carboxylate]] | 79
O=C(OCC[C@@H]1CCCCN1)[C@H]1[C@H](C(=O)Nc2ccc(Br)nc2)[C@@H]2CC[C@H]1C21CC1 [Example 11, (1S,2R,3R,4R)-[(S)-2-(Piperidin-2-yl)ethyl 2-((6-bromopyridin-3-yl)carbamoyl)spiro[bicyclo[2.2.1]heptane-7,1′-cyclopropane]-3-carboxylate]hydrochloride] | 8.8
O=C(OCCC1CCNCC1)[C@H]1[C@H](C(=O)Nc2ccc(Br)nc2)[C@@H]2CC[C@H]1C21CC1 [Example 36, (1S,2R,3R,4R)-[2-(Piperidin-4-yl)ethyl 2-((6-bromopyridin-3-yl)carbamoyl)spiro[bicyclo[2.2.1]heptane-7,1′-cyclopropane]-3-carboxylate]hydrochloride] | 0.4
O=C(OCC1CCNCC1)[C@H]1[C@H](C(=O)NCc2ccc(Br)cc2F)[C@@H]2CC[C@H]1C21CC1 [Example 4, (1S,2R,3R,4R)-[Piperidin-4-ylmethyl 2-((4-bromo-2-fluorobenzyl)carbamoyl)spiro[bicyclo[2.2.1]heptane-7,1′-cyclopropane]-3-carboxylate]hydrochloride] | 52.1
O=C(OCCOCCN1CC[C@H](F)C1)[C@H]1[C@H](C(=O)NCc2ccc(Br)cc2F)[C@@H]2CC[C@H]1C21CC1 [Example 69, (1S,2R,3R,4R)-[(S)-2-(2-(3-Fluoropyrrolidin-1-yl)ethoxy)ethyl 2-((4-bromo-2-fluorobenzyl)carbamoyl)spiro[bicyclo[2.2.1]heptane-7,1′-cyclopropane]-3-carboxylate]] | 145

More lines, in order of falling EC50, values ahead:

EC50 [nM] | SMILES
1750 | CC(CC(F)(F)CN1CCCC1)OC(=O)[C@H]1[C@H](C(=O)Nc2ccc(Br)nc2)[C@@H]2CC[C@H]1C21CC1 (stereo partly drawn) [Example 77, (1S,2R,3R,4R)-[(4,4-Difluoro-5-(pyrrolidin-1-yl))pent-2-yl 2-((6-bromopyridin-3-yl)carbamoyl)spiro[bicyclo[2.2.1]heptane-7,1′-cyclopropane]-3-carboxylate]]
146 | CN(C)CCCOC(=O)[C@H]1[C@H](C(=O)Nc2ccc(Br)nc2)[C@@H]2CC[C@H]1C21CC1 [Example 21, (1S,2R,3R,4R)-[1-Dimethylaminoprop-3-yl 2-((6-bromopyridin-3-yl)carbamoyl)spiro[bicyclo[2.2.1]heptane-7,1′-cyclopropane]-3-carboxylate]]
21.6 | Cc1cc(CNC(=O)[C@H]2[C@H](C(=O)OCCOCCN3CC[C@H](F)C3)[C@H]3CC[C@@H]2C32CC2)no1 [Example 34, (1S,2R,3R,4R)-[(S)-2-(2-(3-Fluoropyrrolidin-1-yl)ethoxy)ethyl 2-(((5-methylisoxazol-3-yl)methyl)carbamoyl)spiro[bicyclo[2.2.1]heptane-7,1′-cyclopropane]-3-carboxylate]]
1.8 | O=C(OCC[C@H]1CCNC[C@H]1F)[C@H]1[C@H](C(=O)Nc2ccc(Br)nc2)[C@@H]2CC[C@H]1C21CC1 (relative stereo) [Example 38, (1S,2R,3R,4R)-[2-(cis-3-Fluoro-piperidin-4-yl)ethyl 2-((6-bromopyridin-3-yl)carbamoyl)spiro[bicyclo[2.2.1]heptane-7,1′-cyclopropane]-3-carboxylate]]
